Test results as given in PMC6273820, “Antimicrobial Activity and Stability of Short and Long Based Arachnid Synthetic Peptides in the Presence of Commercial Antibiotics” (Molecules, 2016).
Where no end group is shown, it is not given here.

Tests used:
[1] = Stability in supernatant of S. aureus growth; type: in vitro ADME, Staphylococcus aureus; details: 50 μg/mL, 12 h at 37 °C, extraction, reverse phase HPLC at 230 nm
Procedure: (§1) The four synthetic peptides were subjected to incubation in human blood plasma or in the supernatant of S. aureus and P. aeruginosa growth. The AMPs were diluted in human blood plasma or in the supernatant of bacterial growth (50 μg/mL) and incubated at 37 °C for 12 h. After peptide extraction, the AMPs were separated by reverse phase HPLC using a C18 column (Vydac 218 TP54, Grace Co.) and a linear gradient of acetonitrile in 0.1% aqueous TFA from 0 to 60% in 60 min at a flow rate of 1 mL/min. Effluent absorbance was monitored at 230 nm. Peptide fractions were dried under vacuum, resuspended and analyzed by ESI-MS to confirm their molecular masses.

[2] = test system: Klebsiella pneumoniae ST258; assay: microbe, parasite or virus in culture; type: cell-based
Procedure: (§2) It was determined using the broth microdilution assay in accordance with the procedures from the Clinical and Laboratory Standards Institute. For broth microdilution assays, pathogenic bacteria, such as Escherichia coli ATCC 25922, Staphylococcus aureus ATCC 25923, Pseudomonas aeruginosa ATCC 27853 and Klebsiella pneumoniae ST258, were cultured in Mueller-Hinton broth (MHB) at 37 °C until an end point between of 0.08 and 0.13 units of absorbance at 625 nm and diluted 1:100 in MHB (ca. […]). Fifty microliters of this bacterial suspension was dispensed into each well of a 96-well microtiter Costar® culture plates (Sigma Aldrich) having 50 µL of MHB containing a proper concentration of pure AMPs, antibiotics or the mixture of either of the AMPs with either of the antibiotics used. Dilutions of peptides and antibiotics were made manually with two-fold dilutions.
(§3) That is, the antimicrobial capacity of each AMP (50, 25, 12.5 and 6.2 µg/ mL) in combination with each antibiotic agent (50, 25, 12.5, 3.2, 1.6 and 0 µg/ mL) was measured as described above. For evaluation of the effect of the mixtures, the fractional inhibitory concentration (FIC) was calculated for each antibiotic in each combination. The following formulas were used to calculate the FIC index: FIC of AMP = MIC of AMP in combination with Antibiotic/MIC of AMP alone; FIC of Antibiotic = MIC of Antibiotic in combination with AMP/MIC of Antibiotic alone, and FIC index = FIC of AMP + FIC of Antibiotic. Synergy was defined as an FIC index of <0.5. Additive was defined as an FIC index of >0.5 but of <4, and finally antagonism was defined as an FIC index of >4.

[3] = cited from earlier work
Description: Concerning AMPs, several physicochemical characteristics have been associated with the biological activity of them. Those that are relevant include hydrophobicity, the helical hydrophobic moment, as well as the size and the net charge of the peptide. However, no particular value relating to any of these characteristics was solely sufficient to correlate with the antimicrobial activity of the AMPs tested. In this case, however, the larger peptides FA1 and Pin2[G] were the AMPs that manifested optimum biological performance. Nevertheless, a fine balance in terms of physicochemical pr ...

[4] = Stability in saline buffer (PBS); type: physicochemical; details: 20 μg peptide in PBS pH 7.4, 37 °C, 7 days; height of peptide peak in reverse phase HPLC
Procedure: The stability of the four synthetic peptides (20 μg) was measured in phosphate buffered saline (PBS) that consisted of NaCl (137 mM), KCl (2.7 mM), Na2HPO4 (10 mM) and KH2PO4 (2 mM) at 37 °C for 7 days (pH 7.4). The stability of peptides in PBS was monitored measuring the height of the peptide peak when separated using reverse phase HPLC under the separation conditions mentioned above.

[5] = Stability in supernatant of P. aeruginosa growth; type: in vitro ADME, Pseudomonas aeruginosa; details: 50 μg/mL, 12 h at 37 °C, extraction, reverse phase HPLC at 230 nm
Procedure: as §1

[6] = test system: Pseudomonas aeruginosa ATCC 27853; assay: microbe, parasite or virus in culture; type: cell-based; details: broth microdilution (CLSI), Mueller-Hinton broth, 18 h at 37 °C, A625nm; peptides n = 8
Procedure: as §2
as §3, with “E. coli, S. aureus, P. aeruginosa and K. pneumoniae were grown in the presence of each of the four AMPs, and in the presence of each of the eight commercial antibiotics, which were Levofloxacin, Trimethoprim, Sulfamethoxazole, Azithromycin, Amoxicillin, Ceftriaxone, Gentamicin and Vancomycin, and in combinations of AMPs and the antibiotics. That” for “That”

[7] = test system: Staphylococcus aureus ATCC 25923; assay: microbe, parasite or virus in culture; type: cell-based; details: broth microdilution (CLSI), Mueller-Hinton broth, 18 h at 37 °C, A625nm; peptides n = 8
Procedure: as §2
as §3, with “E. coli, S. aureus, P. aeruginosa and K. pneumoniae were grown in the presence of each of the four AMPs, and in the presence of each of the eight commercial antibiotics, which were Levofloxacin, Trimethoprim, Sulfamethoxazole, Azithromycin, Amoxicillin, Ceftriaxone, Gentamicin and Vancomycin, and in combinations of AMPs and the antibiotics. That” for “That”

[8] = test system: Escherichia coli ATCC 25922; assay: microbe, parasite or virus in culture; type: cell-based; details: broth microdilution (CLSI), Mueller-Hinton broth, 18 h at 37 °C, A625nm; peptides n = 8
Procedure: as §2, with “dilutions. […]” for “dilutions.”

[9] = Stability in human blood plasma; type: in vitro ADME; details: 50 μg/mL
Procedure: as §1

GILKTIKSIASKVANTVQKLKRKAKNAV [FA1]
Stability in supernatants of S. aureus [1]: only a small amount
Minimal Inhibitory Concentration, K. pneumoniae ([2]; broth microdilution (CLSI), Mueller-Hinton broth, 18 h at 37 °C, A625nm, peptides n = 8): >50 µg/mL
Peptide (MIC) ([2]; peptide alone against K. pneumoniae, based on Figure 2): >50 µg/mL
hemolytic activity [3]: 665 µM
Stability in saline buffer [4]: less stable
Stability in supernatants of P. aeruginosa [5]: not found
Minimal Inhibitory Concentration, P. aureginosa [6]: 25 µg/mL
Minimal Inhibitory Concentration, S. aureus [7]: >50 µg/mL
Minimal Inhibitory Concentration, E. coli [8]: 12.5 µg/mL
Peptide found after incubation in human blood plasma ([9]; 12 h at 37 °C, extraction, reverse phase HPLC at 230 nm, ESI-MS): not found
Recovery after interaction with human plasma, first few minutes of dilution ([9]; extracted after the first few minutes of dilution, reverse phase HPLC): none
